Experimental data from patent publication US20180312473A1, “PHENAZINE DERIVATIVES AS ANTIMICROBIAL AGENTS” (priority 2015, published 2018).
≈ marks a conversion by molar mass, not a printed value. Where two headings read alike, the source gives them in different places.

Tests used:
[1] = tested on: Staphylococcus epidermidis (ATCC 12228); assay: MIC assay (broth microdilution, CLSI); format: cell-based; conditions: Staphylococcus epidermidis
[2] = tested on: MRSA-2 planktonic cells and biofilms; assay: Calgary Biofilm Device (CBD) assay, MBC/MBEC; format: cell-based, Staphylococcus aureus; conditions: for MBC: Staphylococcus aureus, MRSA
[3] = tested on: HeLa cells; assay: in vitro; format: cell-based; conditions: human, 24 h
Procedure: (§1) The cytotoxicities of select compounds of the invention against HeLa cells were determined. HeLa cytotoxicity was assessed using the LDH release assay described by CYTOTOX96 (Promega G1780). HeLa cells were grown in Dulbecco's Modified Eagle Medium (DMEM; Gibco) supplemented with 10% Fetal Bovine Serum (FBS) at 37° C. with 5% CO2. […] Triton X-100 (at 2% v/v) was used as the positive control for maximum lactate dehydrogenate (LDH) activity in this assay (e.g., complete cell death), while “medium only” lanes served as negative control lanes (e.g., no cell death). DMSO was used as the vehicle control. […] Finally, Stop Solution (50 μL) was added to the incubating plates, and the absorbance was measured at 490 nm.
(§2) HeLa cytotoxicity was assessed using the LDH release assay described by CYTOTOX96 (Promega G1780). HeLa cells were grown in Dulbecco's Modified Eagle Medium (DMEM; Gibco) supplemented with 10% Fetal Bovine Serum (FBS) at 37° C. with 5% CO2. […] Triton X-100 (at 2% v/v) was used as the positive control for maximum lactate dehydrogenate (LDH) activity in this assay (e.g., complete cell death), while “medium only” lanes served as negative control lanes (e.g., no cell death). DMSO was used as our vehicle control. […] Finally, Stop Solution (50 μL) was added to the incubating plates and the absorbance was measured at 490 nm. Results are from three independent experiments (FIG. 19)

[4] = in vitro; format: cell-based; conditions: human
Procedure: as §1, §2

[5] = tested on: Enterococcus faecium (ATCC 700221), VRE; assay: MIC assay (broth microdilution, CLSI); format: cell-based
[6] = tested on: MRSA-2 (methicillin-resistant Staphylococcus aureus clinical isolate); assay: MIC assay (broth microdilution, CLSI); format: cell-based; conditions: for MIC: read-out: MIC, MRSA-2
[7] = tested on: human red blood cells; assay: Hemolysis assay with red blood cells; conditions: 200 μM
In short: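 Washed human red blood cells exposed to compounds added from DMSO stocks, 1 h at 37° C.; supernatant OD read at 405 nm after centrifugation. % hemolysis calculated relative to DMSO (0%) and Triton X (100%) controls, from three independent experiments.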

[8] = tested on: Staphylococcus epidermidis (ATCC 35984), MRSE; assay: MIC assay (broth microdilution, CLSI); format: cell-based; conditions: Staphylococcus epidermidis
[9] = tested on: VRE (E. faecium ATCC 700221) planktonic cells and biofilms; assay: Calgary Biofilm Device (CBD) assay, MBC/MBEC; format: cell-based, Enterococcus faecium; conditions: Enterococcus; Table 8; c lowest concentration tested; read-out: VRE 700221 MBC
[10] = tested on: MRSA BAA-44; assay: MIC assay (broth microdilution, CLSI); conditions: Staphylococcus aureus, read-out: MIC, MRSA BAA-44
[11] = tested on: MRSE (S. epidermidis ATCC 35984) planktonic cells and biofilms; assay: Calgary Biofilm Device (CBD) assay, MBC/MBEC; format: cell-based, Staphylococcus epidermidis; conditions: Staphylococcus epidermidis; Table 8; read-out: MRSE 35984 MBC
[12] = tested on: methicillin-resistant S. aureus (MRSA) strains; assay: MIC assay, values summarised over MRSA strains; format: cell-based, Staphylococcus aureus
[13] = tested on: MRSA BAA-1707; assay: MIC assay (broth microdilution, CLSI); conditions: Staphylococcus aureus, read-out: MIC, MRSA BAA-1707
[14] = tested on: MRSA BAA-1707 planktonic cells and biofilms; assay: Calgary Biofilm Device (CBD) assay, MBC/MBEC; conditions: Staphylococcus aureus, read-out: MRSA BAA-1707 MBC
[15] = tested on: K. pneumoniae 13883; assay: MIC assay (broth microdilution, CLSI); format: cell-based, Klebsiella pneumoniae; conditions: Klebsiella pneumoniae, 13883, read-out: K. pneumoniae 13883 MIC
[16] = tested on: A. baumannii 19606; assay: MIC assay (broth microdilution, CLSI); format: cell-based, Acinetobacter baumannii; conditions: Acinetobacter baumannii, 19606, read-out: A. baumannii 19606 MIC
[17] = tested on: E. coli UAEC-1; assay: MIC assay (broth microdilution, CLSI); format: cell-based; conditions: Escherichia coli, UAEC1, read-out: E. coli UAEC-1 MIC
[18] = tested on: MRSA-1 (methicillin-resistant Staphylococcus aureus clinical isolate); assay: MIC assay (broth microdilution, CLSI); format: cell-based; conditions: read-out: MIC, MRSA-1
[19] = tested on: P. aeruginosa (PAO1); assay: MIC assay (broth microdilution, CLSI); format: cell-based; conditions: Pseudomonas aeruginosa, PAO1, read-out: PAO1 MIC
[20] = tested on: S. aureus clinical isolate SA 138; assay: MIC assay (broth microdilution, CLSI); conditions: Staphylococcus aureus, read-out: MIC, SA 138
[21] = tested on: S. aureus clinical isolate SA 129; assay: MIC assay (broth microdilution, CLSI); conditions: Staphylococcus aureus, read-out: MIC, SA 129
[22] = tested on: MRSA-2; assay: MIC assay with Tiron or metal(II) cation co-treatment; format: cell-based, Staphylococcus aureus; conditions: Staphylococcus aureus; MRSA-2, 200 μM iron(II); read-out: MIC with Fe^2+
[23] = tested on: MRSA-2 persister cells (stationary cultures); conditions: 100 μM; for MRSA-2 stationary killing: reduction of viable cells over 24 h
[24] = ATCC12228, Table 7, b lowest concentration tested, read-out: MIC, S. epidermidis 12228
[25] = Table 8, a/b 2-/4-fold range in independent experiments, read-out: MRSA-2 MBC
[26] = Table 7, b lowest concentration tested, read-out: MIC, VRE 700221
[27] = Staphylococcus aureus, MRSA, Table 7, a midpoint of 2-fold range, b lowest concentration tested
[28] = Table 7, read-out: MIC, MRSE 35984

Row | Compound | MIC [1, 24] [µM] | MBC [2, 25] [µM] | MIC [5, 26] [µM] | MIC [6, 27] [µM] | % Hemolysis (200 μM) ([7]; human, 1 h, pH 7.2) [%] | % Hemolysis at 200 μM ([7]; human, 1 h, pH 7.2) [%] | MIC [8, 28] [µM] | MBC [9] [µM] | melting point [°C] | MIC [10] [µM] | MBC [11] [µM] | growth inhibition activity against at least one MRSA strain [12] | MIC [13] [µM] | MBC [14] [µM] | further results
1 | Oc1c(Br)cc(Cl)c2nc3ccccc3nc12 [Compound 7, 2-Bromo-4-chloro-1-hydroxyphenazine] | 2.35 (≈ 0.727 µg/mL) | 46.9 (≈ 14.5 µg/mL) | 6.25 (≈ 1.93 µg/mL) | 1.56 (≈ 0.483 µg/mL) | ≤1 | ≤1 | 1.56 (≈ 0.483 µg/mL) | 7.8 (≈ 2.41 µg/mL) | 212 to 214 | 1.56 (≈ 0.483 µg/mL) | 11.7 (≈ 3.62 µg/mL) | sub-micromolar | – | – | MIC ([1]; ATCC12228, Table 2A, read-out: MIC, Staphylococcus epidermidis (ATCC 12228)): 1.56 to 3.13 µM (≈ 0.483 to 0.969 µg/mL); MBC ([2]; Table 4, read-out: MBC, MRSA-2): 46.9 µM (≈ 14.5 µg/mL); IC50 [3]: > 100 µM; IC50 at 24 h [4]: > 100 µM; MIC ([5]; Enterococcus faecium, Table 2A, read-out: MIC, Enterococcus faecium (ATCC 700221)): 6.25 µM (≈ 1.93 µg/mL); MIC ([6]; Staphylococcus aureus, MRSA, Table 2A): 1.56 µM (≈ 0.483 µg/mL); MIC ([8]; Table 2A, read-out: MIC, Staphylococcus epidermidis (ATCC 35984)): 1.56 µM (≈ 0.483 µg/mL)
2 | Oc1c(Br)cc(Br)c2nc3ccc(Br)cc3nc12 [Compound 18, 2,4,8-Tribromo-1-hydroxyphenazine] | 3.13 (≈ 1.35 µg/mL) | 50 (≈ 21.6 µg/mL) | – | – | – | 2.1 | 3.13 (≈ 1.35 µg/mL) | – | 239 to 241 | – | – | sub-micromolar | 0.2 (≈ 0.0866 µg/mL) | 12.5 (≈ 5.41 µg/mL) | MIC ([12]; Staphylococcus aureus, MRSA, range over the MRSA strains/isolates tested, read-out: MIC against MRSA strains): 0.15 to 0.78 µM (≈ 0.0649 to 0.338 µg/mL)
3 | Oc1c(Br)cc(Br)c2nc3cc4ccccc4cc3nc12 [Compound 19] | – | – | – | – | – | – | – | – | – | 75 (≈ 30.3 µg/mL) | – | – | 50 (≈ 20.2 µg/mL) | – | MIC ([1]; ATCC12228, read-out: MIC, S. epidermidis 12228): 12.5 µM (≈ 5.05 µg/mL); MIC ([1]; ATCC12228, read-out: MIC, Staphylococcus epidermidis (ATCC 12228)): 12.5 µM (≈ 5.05 µg/mL); MBC ([2]; read-out: MBC, MRSA-2): 200 µM (≈ 80.8 µg/mL); MBC ([2]; read-out: MRSA-2 MBC): 200 µM (≈ 80.8 µg/mL); MRSA-2 MBC ([2]; Table 8, a/b 2-/4-fold range in independent experiments): 200/>200 μM; MIC [15]: > 100 µM; MIC ([6]; Staphylococcus aureus, MRSA): > 100 µM; MIC, MRSA-2 ([6]; Table 2B, a midpoint of 2-fold range, * partial growth inhibition at highest concentration): >100* μM; MIC ([6]; Table 7, a midpoint of 2-fold range, b lowest concentration tested): >100 µM; % Hemolysis (200 μM) ([7]; 1 h, 37 °C): ≤1%; % Hemolysis at 200 μM ([7]; red blood cells): <1%; % Hemolysis at 200 μM ([7]; Table 8, human red blood cells): ≤1%; MIC [16]: > 100 µM; MIC [17]: > 100 µM; MIC ([18]; Staphylococcus aureus, MRSA): 12.5 µM (≈ 5.05 µg/mL); MIC ([18]; Table 2B, b lowest concentration tested): 12.5 µM (≈ 5.05 µg/mL); MIC [19]: > 100 µM
4 | CCCCc1cc(Br)c(O)c2nc3ccccc3nc12 [Compound 22, 2-Bromo-4-butyl-1-hydroxyphenazine] | – | 46.9 (≈ 15.5 µg/mL) | 0.78 (≈ 0.258 µg/mL) | – | – | – | – | 2 (≈ 0.662 µg/mL) | 135 to 137 | – | 11.7 (≈ 3.88 µg/mL) | – | – | 46.9 (≈ 15.5 µg/mL) | MIC [20]: 3.13 µM (≈ 1.04 µg/mL); MIC [21]: 1.17 µM (≈ 0.388 µg/mL)
5 | CC(=O)NC[C@H]1CN(c2ccc(N3CCOCC3)c(F)c2)C(=O)O1 [Linezolid, linezolid, reference compound] | – | – | 3.13 (≈ 1.06 µg/mL) | 3.13 (≈ 1.06 µg/mL) | ≤1 | – | – | 469 (≈ 158 µg/mL) | – | – | – | – | – | 31.3 (≈ 10.6 µg/mL) | MIC [22]: 6.25 µM; MIC ([5]; Enterococcus faecium, Table 2B, b lowest concentration tested, read-out: MIC, Enterococcus faecium (ATCC 700221)): 3.13 µM (≈ 1.06 µg/mL); log reduction of MRSA-2 persisters after 3 hours ([23]; 3 hours): 2 log; MRSA-2 stationary killing [23]: ~1 log; MRSA-2 stationary killing ([23]; listed as linezolid): 1 log
